Results as given in PMC6586154 (Clinical Pharmacology in Drug Development, 2018).
Blank lines part the entries; values can stand above or below the molecule they belong to.

Experiments:
P‐glycoprotein = conditions: at clinically relevant concentrations; cited from earlier work
[1] = cited from earlier work
[2] = Ertugliflozin plasma PK summarized across all 4 DDI studies; format: in vivo; conditions: human, oral, 15 mg
[3] = Ertugliflozin-sitagliptin drug-drug interaction study, plasma pharmacokinetics; format: in vivo, human; conditions: for AUC(0-inf): po
OCT2 [4] = conditions: cited from earlier work
OAT3 [5] = conditions: in vitro studies; cited from earlier work
[6] = tested on: breast cancer resistance protein; conditions: at clinically relevant concentrations; cited from earlier work
OAT1 = conditions: cited from earlier work
[7] = Safety and tolerability across all 4 DDI studies; format: in vivo, human; conditions: single dose ertugliflozin 15 mg alone or in combination with sitagliptin, metformin, glimepiride, or simvastatin; healthy subjects
OCT2 [8] = conditions: in vitro studies; cited from earlier work
OCT1 = conditions: cited from earlier work
OATP1B1 = conditions: cited from earlier work
OAT3 [9] = conditions: cited from earlier work
[10] = Ertugliflozin-simvastatin drug-drug interaction study, plasma pharmacokinetics
OATP2B1 = conditions: cited from earlier work
[11] = Ertugliflozin-glimepiride drug-drug interaction study, plasma pharmacokinetics; format: in vivo, human; conditions: for AUC(0-t) / Cmax / Tmax / half-life: oral; for GMR (90% CI) Cmax, analyte Glimepiride: Test Ertugliflozin + Glimepiride / Reference Glimepiride
[12] = Ertugliflozin-metformin drug-drug interaction study, plasma pharmacokinetics
OATP1B3 = conditions: cited from earlier work
[13] = both, human, plasma, oral, 15 mg
[14] = simvastatin 40 mg coadministered with ertugliflozin 15 mg vs alone

Tmax [2]: 1 to 3 h
half-life [2]: 10.6 to 12.6 h
GMR (90% CI) Cmax, analyte Ertugliflozin ([3]; Test Ertugliflozin + Sitagliptin / Reference Ertugliflozin): 98.2 (91.2, 105.7) %
AUC(0-t) ([3]; human, plasma, oral, 15 mg): 1430 ng·h/mL
Cmax ([3]; human, plasma, oral, 15 mg): 270 ng/mL
Tmax ([3]; human, plasma, oral, 15 mg): 1 h
AUC(0-inf) ([3]; human, plasma, 15 mg): 1460 ng·h/mL
GMR (90% CI) Cmax, analyte Ertugliflozin ([10]; Test Ertugliflozin + Simvastatin / Reference Ertugliflozin): 105.2 (98.3, 112.5) %
AUC(0-t) ([10]; both, human, in vivo, 15 mg): 1380 ng·h/mL
Cmax ([10]; both, human, in vivo, 15 mg): 273 ng/mL
half-life ([10]; both, human, in vivo, 15 mg): 12.3 ± 3.07 h
GMR (90% CI) Cmax, analyte Ertugliflozin ([11]; Test Ertugliflozin + Glimepiride / Reference Ertugliflozin): 98.2 (92.2, 104.6) %
AUC(0-t) ([11]; both, human, plasma, 15 mg): 1230 ng·h/mL
Cmax ([11]; both, human, plasma, 15 mg): 146 ng/mL
Tmax ([11]; both, human, plasma, 15 mg): 2 h
half-life ([11]; both, human, plasma, 15 mg): 10.6 ± 2.44 h
GMR (90% CI) Cmax, analyte Ertugliflozin ([12]; Test Ertugliflozin + Metformin / Reference Ertugliflozin): 97.1 (88.8, 106.3) %
AUC(0-t) [12, 13]: 1380 ng·h/mL
Cmax [12, 13]: 279 ng/mL
Tmax [12, 13]: 1.02 h
half-life [12, 13]: 11.8 ± 2.34 h
SMILES: CCOc1ccc(Cc2cc([C@]34OC[C@](CO)(O3)[C@@H](O)[C@H](O)[C@H]4O)ccc2Cl)cc1 [Ertugliflozin]
Substrate of P‐glycoprotein efflux transporter (P‐glycoprotein): substrate
Absolute (oral) bioavailability [1]: approximately 100%
Renal excretion of unchanged ertugliflozin ([1]; human, in vivo): 1.5 % of the administered dose
Contribution of glucuronidation to metabolic clearance ([1]; major metabolic pathway): 86%
Contribution of oxidative metabolism ([1]; minor pathway): 12%
Substrate of OCT2 uptake transporter (OCT2 [4]): not a substrate
Inhibition of OAT3 transporter (OAT3 [5]): weak inhibitor
Substrate of breast cancer resistance protein efflux transporter [6]: substrate
Substrate of OAT1 uptake transporter (OAT1): not a substrate
Tolerability [7]: well tolerated
Inhibition of OCT2 transporter (OCT2 [8]): weak inhibitor
Substrate of OCT1 uptake transporter (OCT1): not a substrate
Substrate of OATP1B1 uptake transporter (OATP1B1): not a substrate
Substrate of OAT3 uptake transporter (OAT3 [9]): not a substrate
Substrate of OATP2B1 uptake transporter (OATP2B1): not a substrate
Substrate of OATP1B3 uptake transporter (OATP1B3): not a substrate

GMR (90% CI) Cmax, analyte Glimepiride [11]: 97.4 (71.1, 133.5) %
GMR (90% CI) Cmax, analyte Glimepiride ([11]; listed as glimepiride): 97.4%
Tmax ([11]; both, human, plasma): 1 to 12 h
AUC(0-t) ([11]; both, human, plasma, 1 mg): 218 ng·h/mL
Cmax ([11]; both, human, plasma, 1 mg): 34.4 ng/mL
half-life ([11]; both, human, plasma, 1 mg): 5.89 ± 2.79 h
AUC(0-inf) ([11]; both, human, plasma, po, 1 mg): 249 ng·h/mL
Intrasubject variability for Cmax of glimepiride ([11]; glimepiride 1 mg alone or with ertugliflozin 15 mg): 53.5%
SMILES: CCC1=C(C)CN(C(=O)NCCc2ccc(S(=O)(=O)NC(=O)N[C@H]3CC[C@H](C)CC3)cc2)C1=O [Glimepiride]

GMR (90% CI) Cmax, analyte Metformin ([12]; Test Ertugliflozin + Metformin / Reference Metformin): 94.0 (82.9, 106.6) %
Metformin Tmax ([12]; plasma, Metformin 1000 mg alone (N = 18), median (range)): 2.00 (0.50–4.00) h
SMILES: CN(C)C(=N)N=C(N)N [Metformin, reference compound]

Increase in geometric mean AUCinf of simvastatin acid [10, 14]: 30%
Increase in geometric mean Cmax of simvastatin acid [10, 14]: 16%
SMILES: CCC(C)(C)C(=O)O[C@H]1C[C@@H](C)C=C2C=C[C@H](C)[C@H](CC[C@@H](O)C[C@@H](O)CC(=O)O)[C@H]21 [Simvastatin Acid, simvastatin acid]

Increase in geometric mean AUCinf of simvastatin [10, 14]: 24%
Increase in geometric mean Cmax of simvastatin [10, 14]: 19%
SMILES: CCC(C)(C)C(=O)O[C@H]1C[C@@H](C)C=C2C=C[C@H](C)[C@H](CC[C@@H]3C[C@@H](O)CC(=O)O3)[C@H]21 [Simvastatin, reference compound]

GMR (90% CI) Cmax, analyte Sitagliptin ([3]; Test Ertugliflozin + Sitagliptin / Reference Sitagliptin): 101.7 (91.7, 112.8) %
half-life ([3]; both, human, plasma, oral, 100 mg): 11 ± 2.89 h
AUC(0-t) ([3]; human, plasma, oral, 100 mg): 6.95 µM·h
Cmax ([3]; human, plasma, oral, 100 mg): 814 nM
AUC(0-inf) ([3]; human, plasma, 100 mg): 7.02 µM·h
SMILES: N[C@@H](CC(=O)N1CCn2c(nnc2C(F)(F)F)C1)Cc1cc(F)c(F)cc1F [Sitagliptin, reference compound]
